In paper PMC7170901, “Design and efficient synthesis of pyrazoline and isoxazole bridged indole C-glycoside hybrids as potential anticancer agents” (Scientific Reports, 2020):

Key:
COX-2 enzyme = target: T1, COX-2 enzyme (Homo sapiens, UniProt P35354); assay: Fluorescence-based COX-2 inhibitor screening assay; assay type: biochemical
T1 construct: purchased Bio Vision (BioVision), USA K547 / k547–100
T1 sequence (P35354 18-604): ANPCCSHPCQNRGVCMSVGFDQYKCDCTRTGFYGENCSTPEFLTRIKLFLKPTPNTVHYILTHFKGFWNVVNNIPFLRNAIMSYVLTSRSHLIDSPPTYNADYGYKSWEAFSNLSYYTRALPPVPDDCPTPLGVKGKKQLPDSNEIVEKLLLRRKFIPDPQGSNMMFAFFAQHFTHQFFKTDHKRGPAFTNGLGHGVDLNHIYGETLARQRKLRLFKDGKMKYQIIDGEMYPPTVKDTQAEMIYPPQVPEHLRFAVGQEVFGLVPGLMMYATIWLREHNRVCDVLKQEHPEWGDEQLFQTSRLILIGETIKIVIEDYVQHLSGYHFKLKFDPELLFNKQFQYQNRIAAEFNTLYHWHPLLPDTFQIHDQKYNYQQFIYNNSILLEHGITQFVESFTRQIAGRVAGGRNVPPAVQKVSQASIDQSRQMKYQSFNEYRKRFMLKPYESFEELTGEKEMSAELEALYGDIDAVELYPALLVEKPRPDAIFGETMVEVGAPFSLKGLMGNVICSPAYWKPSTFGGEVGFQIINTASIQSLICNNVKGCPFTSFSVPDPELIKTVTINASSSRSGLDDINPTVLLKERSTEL
Description: In this method we detect the fluorescence compound PGG2 which can easily be analysed with an excitation wavelength of 540 nm and emission wavelength of 590 nm. The result of COX-2 inhibitory activity has been summarised in Table 5 at two different concentrations.
Assay for cyclooxygenases (COXs) inhibition for COX-2 activity was determined by a fluorescence-based method using a COX-2 inhibitor screening assay kit (Bio vision, catalog # k547–100, S. millipitas Blvd, USA) in a total volume of 100 μL according to the directions provided with the kit manufacturer. The inhibitory activities of the tested compounds were based on the fluorometric detection of Prostaglandin G2 the intermediate product generated by the COX enzyme. The enzymes were preincubated for 5 min at 25 °C with the test compounds prior to addition of arachidonic acid. Celecoxib was used as positive control. Fluorescence was measured (Ex/Em = 540/590 nm) kinetically at 25 °C for 5–10 minutes. Two time point was chosen in the linear range of the plot and obtained the corresponding values (RFU1 and RFU2) The COX-2 inhibitory activity was calculated according to the equation. % Relative inhibition = Slope of EC − Slope of S/Slope of EC × 100. Where EC is the enzyme control and S is sample screen and slope of all the sample is calculated by dividing the net ΔRFU(RFU2 − RFU1) values by the ΔT (T2 − T1).

[1] = MTT cell viability assay in normal MCF-10A cells; assay type: cell-based; details: human, MCF-10A normal mammary epithelial cells, read-out: Cell Viability (%) ± SD
Text: (§1) MDA-MB-231 represents a specific subtype, known as the triple negative breast cancer (TNBC). […] We also included normal mammary epithelial MCF-10A cells in our experiments to confirm if the growth-inhibitory activities of the selected compounds are truly cancer cell-specific. […] Furthermore, none of these compounds did have any growth inhibitory activity against normal breast epithelial cell (MCF-10A). The IC50 values for these compounds against MDA-MB-231 cells (Fig. 2) are also included in Table 4 for comparison. Cell viability assay was performed as per standard protocols. After 72 h of cell incubation in the presence or absence of each compound, cell viability was evaluated by using MTT ((3-(4,5-dimethylthiazol-2-yl)-2,5-diphenyltetrazolium bromide)) (Himedia Pvt. Ltd, India). In brief, this is a homogeneous, colorimetric method for determining the number of viable cells in proliferation, cytotoxicity or chemosensitivity assays. MTT is bio reduced by cells into a formazan product that is […]. After 72 h of compound treatment, the medium was removed and 100 μL of MTT (0.5 mg ml^−1 in media) was added to the cells and kept in the dark for 3 h at 37 °C in the CO2 incubator and the formazan formed was dissolved in 100 μL DMSO (Dimethyl Sulfoxide). The absorbance of the formazan product at 595 nm was measured directly from 96-well assay plates without additional processing using a multimode plate reader (Bio-Rad) (iMark, India), as absorbance is directly proportional to the number of viable cells in culture. The percentage of viable cells in each group is determined with respect to the untreated control cells.

MDA-MB-453 cells = assay: MTT cell viability assay in MDA-MB-453 cells; assay type: cell-based; details: Homo sapiens, read-out: Cell Viability (%) ± SD; for viability at 1 µM: MDA-MB-453, 1 µM; for viability at 10 µM: MDA-MB-453, 10 µM; for viability at 25 µM: MDA-MB-453, 25 µM
Text: as §1

Row | inhibition at 25 µM (COX-2 enzyme) [%] | inhibition at 50 µM (COX-2 enzyme) [%] | Compound | viability at 72 h, 25 µM [1] [%] | viability at 72 h, 50 µM [1] [%] | viability at 72 h, 100 µM [1] [%] | viability at 1 µM (MDA-MB-453 cells) [%] | viability at 10 µM (MDA-MB-453 cells) [%] | viability at 25 µM (MDA-MB-453 cells) [%]
1 | 6.7 | 27 | OC[C@H]1O[C@@H](CC2=NNC(c3c[nH]c4ccccc34)C2)[C@H](O)[C@@H](O)[C@H]1O (stereo partly drawn) [Compound 25, (2 S,3 R,4 R,5 R,6 R)-2-((5-(1H-indol-3-yl)-4,5-dihydro-1H-pyrazol-3-yl)methyl)-6-(hydroxy-methyl)tetrahydro-2H-pyran-3,4,5-triol] | 87.6 ± 2.2 | 84.6 ± 1.7 | 82.4 ± 2.6 | 88.8 ± 5.2 | 78.3 ± 4.7 | 69.6 ± 5.3
2 | 25 | 71 | O=C(/C=C/c1c[nH]c2ccccc12)C[C@@H]1O[C@H](CO)[C@@H](O)[C@H](O)[C@H]1O [Compound 9, (E)-4-(1H-indol-3-yl)-1-((2S,3R,4R,5S,6R)-3,4,5-trihydroxy-6-(hydroxymethyl)tetrahydro-2H-pyran-2-yl)but-3-en-2-one] | 87.6 ± 1.5 | 81.3 ± 2.9 | 84.2 ± 3 | 80.6 ± 8 | 76.4 ± 5.4 | 96.1 ± 35.7
3 | 4.9 | 59 | O=[N+]([O-])c1ccc2[nH]cc(-c3cc(C[C@@H]4O[C@H](CO)[C@@H](O)[C@H](O)[C@H]4O)no3)c2c1 [Compound 34, (2 R,3 S,4 R,5 R,6 S)-2-(hydroxymethyl)-6-((5-(5-nitro-1H-indol-3-yl)isoxazol-3-yl)methyl) tetrahydro-2H-pyran-3,4,5-triol] | 87.6 ± 1.5 | 80.1 ± 2.8 | 84.2 ± 3 | 92.5 ± 4.6 | 80.9 ± 1.2 | 66.8 ± 1.7
4 |  | 95 | OC[C@H]1O[C@@H](Cc2cc(-c3c[nH]c4ccccc34)on2)[C@H](O)[C@@H](O)[C@H]1O [Compound 37, (2 S,3 R,4 R,5 R,6 R)-2-((5-(1H-indol-3-yl)isoxazol-3-yl)methyl)-6-(hydroxymethyl) tetrahydro-2H-pyran-3,4,5-triol] | 86.8 ± 2.8 | 83.2 ± 5.8 | 81 ± 1.5 | 95.4 ± 4.8 | 76.4 ± 5.4 | 96.1 ± 35.7
5 | 13.7 | 39 | O=C(/C=C/c1c[nH]c2ccc(Cl)cc12)C[C@@H]1O[C@H](CO)[C@@H](O)[C@H](O)[C@@H]1O [Compound 20, (E)-4-(5-chloro-1H-indol-3-yl)-1-((2S,3S,4R,5S,6R)-3,4,5-trihydroxy-6-(hydroxymethyl)tetrahydro-2H-pyran-2-yl)but-3-en-2-one] | 85.8 ± 5.3 | 78.8 ± 3 | 36.5 ± 3.4 | 105 ± 8.1 | 74.8 ± 1.5 | 66.4 ± 3.2
